Measurements published in patent publication US20080300263A1, “Pyrazolo [1,5-a] pyrimidine compounds and pharmaceutical compositions containing them” (EiRx Therapeutics plc, priority 2005, published 2008).
Like-named read-outs stand apart in the source and are kept apart here.

Assays:
C9M-TF1 cells [1] = assay: EC50 titration, Alamar Blue, suspension cells; assay type: cell-based; conditions: Homo sapiens, 72 h
Experimental: (§1) On the day of the assay compounds are used to prepare dilution series on Titration Plates which are plated at ten times their final screening concentration in 10 μl aliquots.
(§2) Suspension cells are split 24 hours prior to drug treatment in order to bring the cultures into the log phase of growth. On the day of the assay the cells are plated directly into the Titration Plates at the appropriate pre-determined seeding density (Table 1) in 90 μl volumes thus reducing the concentration of the compounds to their final test concentration. The plates are incubated for 72 hours at 37° C. and 5% CO2 after which time they are assayed by Alamar Blue.
(§3) The EC50 values are calculated using the values obtained from the Alamar Blue readout which are converted into a “Percentage of the Untreated Control” and using Graph Pad Prism these values are plotted against the logarithm of the test concentration. Using a non-linear regression analysis a sigmoidal dose-response curve is generated from which the EC50 is determined.

[2] = system: non-transformed breast cell line MCF10A; assay: EC50 titration, Alamar Blue, adherent cells; assay type: cell-based; conditions: Homo sapiens, MCF-10A, 72 h
Experimental: as §1
(§4) For adherent cell lines plated 24 hours previously, a 90 μl volume of the appropriate cell culture medium is then added to each well of the Titration Plates and mixed by repeated aspiration/dispensing, thus taking the compounds to their final test concentration. Once the Titration Plates have been prepared the media is removed from all wells of the cell culture plate and the contents of the Titration Plates are then transferred to the appropriate wells of their relevant Test Plates and incubated for 72 h at 37° C. and 5% CO2 after which time they are assayed by Alamar Blue. Using a combination of Microsoft Excel and Graph Pad Prism, EC50s are determined.
as §3

[3] = system: breast cancer cell line MCF7; assay: EC50 titration, Alamar Blue, adherent cells; assay type: cell-based; conditions: Homo sapiens, 72 h
Experimental: as §1, §4, §3

[4] = system: colon cancer cell line HT29; assay: EC50 titration, Alamar Blue, adherent cells; assay type: cell-based; conditions: Homo sapiens, HT-29, 72 h
Experimental: as §1, §4, §3

C9M-TF1 cells [5] = assay: Primary high-throughput screen, Alamar Blue, suspension cells; assay type: cell-based; conditions: Homo sapiens, 72 h, compound at 10 μM, read-out: percentage kill, C9M
Experimental: (§5) Daughter Plates containing 10 μl of a […] solution of test compound selected from among the candidate compounds stored at […] are thawed at room temperature. A 10 μL volume of 0.1% DMSO in PBS is added to all wells of Column 12 and the wells in Row A-F of Column 1. A 10 μl volume of a pre-determined concentration of the P13-Kinase inhibitor LY294002 is added to wells in Row G and H of Column 1. A 90 μl volume of the appropriate cell culture medium is then added to each well and mixed by repeated aspiration/dispensing. The compounds are at a final test concentration of 10 μM.
(§6) Once the Daughter Plates have been prepared the media is removed from all wells of the cell culture plate using an 8-Channel Vacuum Aspirator. The contents of the Daughter Plates are then transferred to the appropriate wells of their relevant Test Plates and the Test Plates are incubated for 72 h at 37° C. and 5% CO2. At the end of this period Test Plates are assayed by Alamar Blue. A 10 μl volume of Alamar Blue is added to all wells of the Test Plate. The Test Plates are incubated for […] at 37° C. and 5% CO2 and finally read using the BioTek SYNERGY plate reader (Excitation 530125 nm-Emission 590135 nm). Percentage inhibition is determined using Microsoft Excel spreadsheet calculations.
(§7) Suspension cells are split 24 hours prior to drug treatment in order to bring the cultures into the log phase of growth. On the day of the assay the cells are plated directly into the Daughter Plates at the appropriate pre-determined seeding density (Table 1) in 90 μl volumes, the concentration of the test compounds thus being reduced to 10 μM. Cells are plated in all wells apart from those in Column 12 which contain 901 normal culture medium alone. The plates are incubated for 72 h at 37° C. and 5% CO2 after which time they are assayed by Alamar Blue as per the preceding example.
(§8) The figures appearing in the columns are the percentage kill achieved by that compound at 10 μM.

[6] = system: FRAT2 overexpresing TF1 (FRAT2-C9M-TF1 cells); assay: as above; assay type: cell-based; conditions: Homo sapiens, compound at 10 μM, 72 h
Experimental: as §5, §6, §7, §8

[7] = system: NCI ADR RES Breast adenocarcinoma (pleural effusion); assay: Primary high-throughput screen, Alamar Blue, adherent cells; assay type: cell-based; conditions: Homo sapiens, compound at 10 μM, 72 h, read-out: percentage kill, NCI ADR RES
Experimental: (§9) Adherent cells are plated at a pre-determined seeding density (Table 1) in flat-bottom 96 well plates 24 hours prior to drug treatment. The cell lines are plated in 100 μl volumes in each well. Cells are plated in all wells apart from those in Column 12 which contain 100 μL normal culture medium alone. These plates will be known as the Test Plates. The Test Plates are labelled with a Daughter Plate ID.
as §5, §6, §8

[8] = system: SW480 Colon adenocarcinoma (Dukes' type B); assay: as above; assay type: cell-based; conditions: Homo sapiens, compound at 10 μM, 72 h, read-out: percentage kill, SW480
Experimental: as §9, §5, §6, §8

[9] = system: MCF7 Mammary gland adenocarcinoma; assay: as above; assay type: cell-based; conditions: Homo sapiens, compound at 10 μM, 72 h, read-out: percentage kill, MCF7
Experimental: as §9, §5, §6, §8

[10] = system: CACO2 Colon adenocarcinoma; assay: as above; assay type: cell-based; conditions: Homo sapiens, Caco-2; compound at 10 μM, 72 h; read-out: percentage kill, CAC02
Experimental: as §9, §5, §6, §8

[11] = system: U1810 Non Small Cell Lung Carcinoma; assay: as above; assay type: cell-based; conditions: U-1810; compound at 10 μM, 72 h; read-out: percentage kill, U1810
Experimental: as §9, §5, §6, §8

[12] = system: LS123 Colon adenocarcinoma (Dukes' type B); assay: as above; assay type: cell-based; conditions: Homo sapiens, LS-123; compound at 10 μM, 72 h; read-out: percentage kill, LS123
Experimental: as §9, §5, §6, §8

[13] = system: HT29 Colorectal adenocarcinoma; assay: as above; assay type: cell-based; conditions: Homo sapiens, HT-29; compound at 10 μM, 72 h; read-out: percentage kill, HT29
Experimental: as §9, §5, §6, §8

[14] = system: PC3 Prostate carcinoma (bone metastasis); assay: as above; assay type: cell-based; conditions: compound at 10 μM, 72 h; read-out: percentage kill, PC3
Experimental: as §9, §5, §6, §8

[15] = system: A549 Non Small Cell Lung Carcinoma; assay: as above; assay type: cell-based; conditions: Homo sapiens, compound at 10 μM, 72 h, read-out: percentage kill, A549
Experimental: as §9, §5, §6, §8

LoVo = assay: EC50 titration, Alamar Blue; assay type: cell-based; conditions: Homo sapiens
Experimental: as §1, §4, §3

HCT116 = assay: EC50 titration, Alamar Blue; assay type: cell-based; conditions: Homo sapiens, HCT-116
Experimental: as §1, §4, §3

FRAT2-C9M-TF1 cells [16] = assay: EC50 titration, Alamar Blue, suspension cells; assay type: cell-based, Human; conditions: for EC50: Homo sapiens, 72 h, Alamar Blue
Experimental: as §1, §2, §3

C9M-TF1 cells [17] = assay: LY294002 control plate titration, Alamar Blue; assay type: cell-based; conditions: Homo sapiens, 72 h, FIG. 8
Experimental: (§10) This example describes an assay to examine the effect of the PI3K inhibitor LY294002 on cell survival for both FRAT2-[…]-TF1 or […]-TF1 cells, as determined by Alamar Blue. The growth factor GMCSF mediates its survival effect through the PI3/AKT pathway. Consequently, inhibitors of this pathway will increase apoptosis in pathway-dependent cell lines. Both FRAT2-[…]-TF1 or […]-TF1 are split 24 hours prior to drug treatment in order to bring the cultures into the log phase of growth. On the day of the assay the cells are plated directly into a 96 well microtitre plates containing 10 uL volumes of a serial dilutions of LY294002, such that there was a final cell number of 5000 cells per well in 90 uL volumes thus reducing the concentration of the compounds to their final test concentration. The plates are incubated for 72 h at 37° C. and 5% CO2 after which time they are assayed by Alamar Blue. […] The overexpression of FRAT2 leads to the stabilization β-catenin through disassociation of GSK3β from Axin and through the inhibition of β-catenin phosphorylation which results in an increased level of β-catenin in the nucleus of the cell where it forms a complex with the HMB box transcription factors LEF and TCF as well as with CREB Binding Protein. […]

FRAT2-C9M-TF1 cells [18] = assay: LY294002 control plate titration, Alamar Blue; assay type: cell-based; conditions: Homo sapiens, 72 h, FIG. 8
Experimental: as §10

colon cancer = conditions: cited from earlier work
[19] = minus GMCSF, read-out: percentage kill, FRAT2−
[20] = plus GMCSF, read-out: percentage kill, FRAT2+

Compound | EC50 (C9M-TF1 cells [1]) | EC50 [2] | EC50 [3] | EC50 [4] | inhibition at 10 µM (C9M-TF1 cells [5]; first C9M column) | inhibition at 10 µM (C9M-TF1 cells [5]; second C9M column) | inhibition at 10 µM [6, 19] | inhibition at 10 µM [6, 20] | inhibition at 10 µM [7] | inhibition at 10 µM [8] | inhibition at 10 µM [9] | inhibition at 10 µM [10] | inhibition at 10 µM [11] | inhibition at 10 µM [12] | inhibition at 10 µM [13] | inhibition at 10 µM [14] | inhibition at 10 µM [15] | EC50 (LoVo) | EC50 (FRAT2-C9M-TF1 cells [16]; absence of growth factor) | EC50 (FRAT2-C9M-TF1 cells [16]; presence of growth factor) | other results
COc1ccc(-c2cnn3c(NCc4ccccn4)ccnc23)cc1OC [Compound 2] | 24 µM | 20.4 µM | 2.24 µM | 4.37 µM | -2% | 0% | 57% | 33% | 73% | 68% | 68% | 66% | 23% | 91% | 60% | 4% | 18% | 2.2 µM | 6.31 µM | 7.08 µM | EC50 (HCT116): 3 µM
COc1ccc(-c2cnn3c(NCc4ccccn4)ccnc23)cc1 [Compound 3] | 5.62 µM | 7.24 µM | 0.83 µM | 0.74 µM | 8% | -12% | 76% | 40% | 66% | 64% | 85% | 58% | 15% | 95% | 80% | -20% | 13% | 2.2 µM | 4.17 µM | 2.24 µM | EC50 (HCT116): 2.2 µM
COc1ccc(-c2cnn3c(NCc4ccccn4)ccnc23)cn1 [Compound 9] | 17.8 µM | 12.9 µM | 1.7 µM | 2 µM | 9% | -5% | 62% | 15% | 64% | 58% | 76% | 65% | 52% | 80% | 69% | 9% | 7% | – | 3.39 µM | 2.04 µM | –
Cc1csc(-c2cnn3c(NCc4ccccn4)ccnc23)c1 [Compound 10] | 22.9 µM | 20.4 µM | 1.86 µM | 1.78 µM | 14% | -8% | 71% | 16% | 52% | 51% | 77% | 25% | 16% | 89% | 68% | -45% | 8% | – | 5.37 µM | 4.68 µM | –
O=c1cc(N2CCOCC2)oc2c(-c3ccccc3)cccc12 [LY294002, reference compound] | 6.03 µM | 12.9 µM | 1.07 µM | 5.37 µM | – | – | – | – | – | – | – | – | – | – | – | – | – | 3 µM | 75.9 µM | 51.3 µM | EC50 (C9M-TF1 cells [17]): ~6 µM; EC50 (FRAT2-C9M-TF1 cells [18]): ~50 µM; EC50 (HCT116): 21 µM; difference of EC50 between FRAT2-C9M-TF1 and C9M-TF1 cells (FRAT2-C9M-TF1 cells [16]; FRAT2-C9M-TF1 cells more resistant): approx. 8.5 fold
Avastin: FDA-approved monoclonal antibody (Genentech) blocking vascular endothelial growth factor (VEGF) | – | – | – | – | – | – | – | – | – | – | – | – | – | – | – | – | – | – | – | – | lived longer than patients on the standard regimen alone (colon cancer): about five
